Entries after “also recorded” stand apart in the source; their conditions may differ. Where two headings read alike, the source gives them in different places.
Assays:
MERS-CoV (EMC strain) = experiment: microbe, parasite or virus in culture; type: cell-based
[1] = system: measles virus (CC strain); experiment: microbe, parasite or virus in culture; type: cell-based
[2] = system: tacaribe virus (TRVL11573 strain); experiment: microbe, parasite or virus in culture; type: cell-based; conditions: read-out: Tacaribe virus EC50 TRVL 11573 strain
[3] = system: influenza A (H1N1) virus (California/07/2009 strain); experiment: microbe, parasite or virus in culture; type: cell-based
Influenza A (H3N2) = experiment: microbe, parasite or virus in culture; type: cell-based; conditions: H3N2, MDCK, read-out: EC50 Influenza A (H3N2)
Influenza A (H5N1) = experiment: microbe, parasite or virus in culture; type: cell-based; conditions: H5N1, MDCK, read-out: EC50 Influenza A (H5N1)
Influenza B = experiment: microbe, parasite or virus in culture; type: cell-based; conditions: MDCK, read-out: EC50 Influenza B
[4] = system: dengue virus 2 (New Guinea C strain); experiment: microbe, parasite or virus in culture; type: cell-based
[5] = system: enterovirus-71 (Tainan/4643/98 strain); experiment: organism not typed; type: cell-based; conditions: Vero 76, read-out: EC50 enterovirus-71
Vero cells = conditions: African green monkey
Huh7 cells = conditions: read-out: Yellow fever virus CC50 Huh7, YFV screen
MDCK cells = conditions: dog
in vitro [6] = conditions: African green monkey
in vitro [7] = conditions: African green monkey, Tacaribe virus CC50 Vero
in vitro [8] = conditions: dog, CC50 MDCK

In the case of CCc1ncnc2c1c(F)cn2[C@@H]1O[C@H](CO)[C@@H](O)[C@H]1O [3.1r, 6-Ethyl-7-Fluoro-9-β-D-ribofuranosyl-7-deazapurine], the “activity against MERS-CoV in words” value (MERS-CoV (EMC strain)) is reported as “moderately active with low selectivity index; also recorded: low micromolar to submicromolar activity”, the EC50 (MERS-CoV (EMC strain); Middle East respiratory syndrome-related coronavirus, Vero 76, read-out: MERS-CoV EC50 EMC strain) is reported as 3 µM and the EC50 (MERS-CoV (EMC strain); read-out: MERS-CoV EC50 EMC strain) is reported as 2.5 µM. For the same molecule, the EC50 ([1]; Measles morbillivirus, Vero 76, read-out: Measles EC50 CC strain) was 7.7 µM, the EC50 ([1]; read-out: Measles EC50 CC strain) was 9.6 µM and the EC50 ([2]; Mammarenavirus tacaribeense, Vero) was over 63 µM. The EC50 [2] was 43 µM, the EC50 ([3]; Influenza A virus, H1N1, MDCK, read-out: EC50 California/07/2009 strain) was 0.34 µM and the EC50 ([3]; Influenza A virus, H1N1, MDCK, read-out: EC50 Influenza A (H1N1)) was 0.34 µM. The EC50 ([3]; read-out: EC50 California/07/2009 strain) was 0.32 µM, the EC50 (Influenza A (H3N2)) was under 0.1 µM and the EC50 (Influenza A (H5N1)) was under 0.1 µM. For the same molecule, the EC50 (Influenza B) was under 0.1 µM, the “activity against dengue virus 2 in words” value [4] was “low micromolar to submicromolar activity” and the EC50 [5] was over 100 µM. It also gave a CC50 (Vero 76 cells; African green monkey) of 42 µM, a CC50 (Vero 76 cells; read-out: MERS-CoV CC50 Vero 76, Neutral Red, MERS-CoV screen) of 46 µM and a CC50 (Vero 76 cells; read-out: MERS-CoV CC50 Vero 76, Visual, MERS-CoV screen) of 100 µM. It also gave a CC50 (Vero cells) of 59 µM, a CC50 (Huh7 cells; Neutral Red) of 1.9 µM and a CC50 (Huh7 cells; Visual) of over 100 µM. It also gave a CC50 (MDCK cells) of 43 µM, a CC50 (in vitro [6]; CC50) of over 100 µM and a CC50 (in vitro [6]; Measles CC50 Vero 76) of 32 µM. It also gave a CC50 (in vitro [7]) of 63 µM and a CC50 (in vitro [8]) of 32 µM.
